The text below walks through data of patent publication US6063812A, “Fumagillol derivatives and processes for preparing the same” (Chong Kun Dang Corporation, priority 1998, dated 2000).

The term IC50 denotes the point on the concentration scale where inhibition reaches its midpoint.

Assay [1] concerns EL-4 (Lymphoma, murine) cells. In words: Inhibiting activity on angiogenesis in vitro: EL-4 cells, MTT method. Format: cell-based. As to conditions: Mus musculus, EL4, 72 h, read-out: IC50, EL-4. As to the method: (§1) The compound sample dissolved in DMSO was diluted to ten times by using MEM culture medium (in case of CPAE cells) without adding FBS (Fetal Bovine Serum), and RPMI 1640 culture (in case of EL-4 and P388D1 cells), and 20 μl of the solution was poured to each well of 96 well plate in triplicate for every concentration gradient. Then, each cell suspension was prepared and poured to examine the inhibiting activity on angiogenesis.
In case of EL-4 (Lymphoma, murine) and P388D1 (leukemia, mouse) cells, a cell suspension having 1×10^4 cells/ml was prepared with RPMI1640 (+10% FBS) culture medium, and after pouring the suspension (180 μl) to each well of 96 well plate, they were cultured in a CO2 incubator (5% CO2, humidified) for 3 days.

Assay [2] deals with CPAE (Calf Pulmonary Artery Endothelial) cells. In words: Inhibiting activity on angiogenesis in vitro: CPAE cells, SRB method. As to conditions: Bos taurus, Endothelial cell, 96 h, 4 days, 10% FBS + ECGS. Format: cell-based. The protocol: as §1
In case of CPAE (Calf Pulmonary Artery Endothelial) cells (used after 2-3 subcultures), a cell suspension having 7×10^3 cells/ml was prepared with MEM (+10% FBS+50 μg/ml ECGS) medium, and after pouring the suspension (180 μl) to each well of 96 well plate, they were cultured in a CO2 incubator (5% CO2, humidified) for 4 days.
A general note: In SRB staining, fixed cells bind dye roughly in proportion to their protein.

Setting [3] is: EL-4 cells, 3 days, MTT method, 10% FBS.

Converted amounts (≈) assume the structure as drawn. Read-outs that look alike come from different tables or passages of the source.

With `COc1ccc(/C=C/C(=O)O[C@@H]2CC[C@]3(CO3)[C@@H]([C@@]3(C)O[C@@H]3CC=C(C)C)[C@@H]2OC)cc1` [Example 2, O-(4-methoxycinnamoyl)fumagillol], the 50% inhibitory concentration (IC50) in assay [1] (setting [3]) amounted to 0.0022 ng/mL (≈ 0.00497 nM); in assay [2] it was 0.0017 ng/mL.
Turning to `COc1cc(/C=C/C(=O)O[C@@H]2CC[C@]3(CO3)[C@@H]([C@@]3(C)O[C@@H]3CC=C(C)C)[C@@H]2OC)cc(OC)c1OC` [Example 3, O-(3,4,5-trimethoxycinnamoyl)fumagillol], in assay [1], the IC50 worked out at 1.1e-05 ng/mL (≈ 2.19e-05 nM).
As to `CO[C@@H]1[C@H](OC(=O)/C=C/c2ccc(Cl)cc2)CC[C@]2(CO2)[C@H]1[C@@]1(C)O[C@@H]1CC=C(C)C` [Example 4, O-(chlorocinnamoyl)fumagillol], the IC50 in assay [1] (setting [3]) came out at 0.84 ng/mL (≈ 1.88 nM); in assay [2] it was 0.99 ng/mL.
For `COc1cc(/C=C/C(=O)O[C@@H]2CC[C@](O)(CCl)[C@@H]([C@@]3(C)O[C@@H]3CC=C(C)C)[C@@H]2OC)cc(OC)c1OC` [Example 5, 4-(3,4,5-trimethoxycinnamoyl)oxy-2-(1,2-epoxy-1,5-dimethyl-4-hexenyl)-3-methoxy-1-chloromethyl-1-cyclohexanol] the same measures were 1.1e-05 ng/mL (≈ 2.04e-05 nM) and 4.8e-05 ng/mL.
On to `CO[C@@H]1[C@H](OC(=O)/C=C/c2ccc([N+](=O)[O-])cc2)CC[C@]2(CO2)[C@H]1[C@@]1(C)O[C@@H]1CC=C(C)C` [Example 7, O-(4-nitrocinnamoyl)fumagillol], for which the IC50 in assay [1] (setting [3]) was 0.054 ng/mL (≈ 0.118 nM); in assay [2], 0.012 ng/mL.
`CO[C@@H]1[C@H](OC(=O)/C=C/c2ccc(OC(C)=O)cc2)CC[C@]2(CO2)[C@H]1[C@@]1(C)O[C@@H]1CC=C(C)C` [Example 9, O-(4-acetoxycinnamoyl)fumagillol]: the IC50 in assay [1] (setting [3]) was 0.0066 ng/mL (≈ 0.014 nM); in assay [2], 0.0044 ng/mL.
As to `COc1cc(/C=C/C(=O)O[C@@H]2CC[C@]3(CO3)[C@@H]([C@@]3(C)O[C@@H]3CC=C(C)C)[C@@H]2OC)cc(OC)c1OC(C)=O` [Example 11, O-(4-acetoxy-3,5-dimethoxycinnamoyl)fumagillol], the IC50 in assay [1] (setting [3]) came out at 0.00032 ng/mL (≈ 0.000603 nM); in assay [2] it was 0.00021 ng/mL.
For the molecule `COc1cc(/C=C/C(=O)O[C@@H]2CC[C@]3(CO3)[C@@H]([C@@]3(C)O[C@@H]3CC=C(C)C)[C@@H]2OC)cc(OC)c1O` [Example 12, O-(3,5-dimethoxy-4-hydroxycinnamoyl)fumagillol], the IC50 worked out at 0.00069 ng/mL (≈ 0.00141 nM) in assay [1] (setting [3]) and 0.00073 ng/mL in assay [2].
For the molecule `COc1ccc(/C=C/C(=O)O[C@@H]2CC[C@](O)(CCl)[C@@H]([C@@]3(C)O[C@@H]3CC=C(C)C)[C@@H]2OC)cc1` [Example 13, 4-(4-methoxycinnamoyl)oxy-2-(1,2-epoxy-1,5-dimethyl-4-hexenyl)-3-methoxy-1-chloromethyl-1-cyclohexanol], the IC50 was found to be 0.0016 ng/mL (≈ 0.00334 nM) in assay [1] (setting [3]) and 0.0011 ng/mL in assay [2].
Take `CO[C@@H]1[C@H](OC(=O)/C=C/c2ccc(N(C)C)cc2)CC[C@]2(CO2)[C@H]1[C@@]1(C)O[C@@H]1CC=C(C)C` [Example 14, O-(4-dimethylaminocinnamoyl)fumagillol]: the IC50 in assay [1] (setting [3]) is 0.00049 ng/mL (≈ 0.00108 nM); in assay [2], 0.00063 ng/mL.
In the case of `CO[C@@H]1[C@H](OC(=O)/C=C/c2ccc(N)cc2)CC[C@]2(CO2)[C@H]1[C@@]1(C)O[C@@H]1CC=C(C)C` [Example 15, O-(4-aminocinnamoyl)fumagillol], the results for the IC50 in assay [1] (setting [3]) and in assay [2] were 0.0043 ng/mL (≈ 0.0101 nM) and 0.0025 ng/mL, respectively.
`COc1cc(/C=C/CO[C@@H]2CC[C@]3(CO3)[C@@H]([C@@]3(C)O[C@@H]3CC=C(C)C)[C@@H]2OC)cc(OC)c1OC` [Example 17, O-(3,4,5-trimethoxycinnamyl)fumagillol]: the IC50 in assay [1] (setting [3]) is 0.0015 ng/mL (≈ 0.00307 nM); in assay [2], 0.0012 ng/mL.
For the molecule `CO[C@@H]1[C@H](OC(=O)/C=C/c2ccc(OCCN(C)C)cc2)CC[C@]2(CO2)[C@H]1[C@@]1(C)O[C@@H]1CC=C(C)C` [Example 18, O-(4-dimethylaminoethoxycinnamoyl)fumagillol], the IC50 stood at 0.00041 ng/mL (≈ 0.000821 nM) in assay [1] (setting [3]) and 0.00052 ng/mL in assay [2].
Consider `COc1ccc(/C=C/C(=O)O[C@@H]2CC[C@]3(CO3)[C@@H]([C@@]3(C)O[C@@H]3CC=C(C)C)[C@@H]2OC)cc1CN(C)C` [Example 19, O-(3-dimethylaminomethyl-4-methoxycinnamoyl)fumagillol], for which the IC50 in assay [1] (setting [3]) came to 0.00057 ng/mL (≈ 0.00114 nM); in assay [2], 0.00032 ng/mL.
In the same order, the values of `CO[C@@H]1[C@H](OC(=O)/C=C/c2ccc3c(c2)OCO3)CC[C@]2(CO2)[C@H]1[C@@]1(C)O[C@@H]1CC=C(C)C` [Example 20, O-(3,4-methylenedioxycinnamoyl)fumagillol] are 0.00022 ng/mL (≈ 0.000482 nM) and 0.00012 ng/mL.
Take `COc1cc(N)c(/C=C/C(=O)O[C@@H]2CC[C@]3(CO3)[C@@H]([C@@]3(C)O[C@@H]3CC=C(C)C)[C@@H]2OC)cc1OC` [Example 21, O-(3,4-dimethoxy-6-aminocinnamoyl)fumagillol]: the IC50 in assay [1] (setting [3]) worked out at 0.00082 ng/mL (≈ 0.00168 nM); in assay [2], 0.00083 ng/mL.
In the same order, the values of `CO[C@@H]1[C@H](OC(=O)/C=C/c2ccc(N(C)C)cc2)CC[C@](O)(CCl)[C@H]1[C@@]1(C)O[C@@H]1CC=C(C)C` [Example 25, 4-(4-dimethylaminocinnamoyl)oxy-2-(1,2-epoxy-1,5-dimethyl-4-hexenyl)-3-methoxy-1-chloromethyl-1-cyclohexanol] are 0.00041 ng/mL (≈ 0.000833 nM) and 0.00033 ng/mL.
Consider `CO[C@@H]1[C@H](OC(=O)/C=C/C=C/C=C/C=C/C(=O)O)CC[C@]2(CO2)[C@H]1[C@@]1(C)O[C@@H]1CC=C(C)C` [Fumagillin, fumagillin, reference compound], for which, in assay [1], the IC50 worked out at 1.6 ng/mL (≈ 3.49 nM).
